Data as given in US10405547B2, “Substituted cyclic amides as herbicides” (FMC Corporation, priority 2015, dated 2019).

Legend:
Format in all cases: in vivo
[1] = test system: ragweed (common ragweed, Ambrosia elatior); experiment: Test A postemergence, ragweed; conditions: visual injury, 0 to 100 scale (0 no effect, 100 complete control), approximately 10 days
How it was run: (§1)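 Greenhouse pot test in loam/sand soil. Pre: directed soil spray after seeding. Post: 1–2-leaf plants, 2–10 cm. Formulation: non-phytotoxic solvent + surfactant. Visual rating vs untreated controls at ~10 d, 0 (no effect) to 100 (complete control).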

[2] = test system: ducksalad (Heteranthera limosa); experiment: Test B flooded paddy test, ducksalad; conditions: applied to paddy water, visual rating after 13 to 15 days, scale 0 (no effect) to 100 (complete control)
How it was run: (§2)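 Test compounds are applied straight into paddy water held 3 cm above the soil surface, with that flood maintained for the whole test. After 13 to 15 days in the greenhouse, each species is scored visually relative to controls.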

[3] = test system: pigweed (Amaranthus retroflexus); experiment: Test A preemergence, pigweed; conditions: 0 to 100 scale (0 no effect, 100 complete control)
How it was run: as §1

[4] = test system: wheat (Triticum aestivum); experiment: Test A postemergence, wheat; conditions: visual injury, 0 to 100 scale (0 no effect, 100 complete control), approximately 10 days
How it was run: as §1

[5] = test system: barnyardgrass (Echinochloa crus-galli); experiment: Test A postemergence, barnyardgrass; conditions: visual injury, 0 to 100 scale (0 no effect, 100 complete control), approximately 10 days
How it was run: as §1

[6] = test system: pigweed (Amaranthus retroflexus); experiment: Test A postemergence, pigweed; conditions: visual injury, 0 to 100 scale (0 no effect, 100 complete control), approximately 10 days
How it was run: as §1

[7] = test system: foxtail, giant (Setaria faberii); experiment: Test A postemergence, giant foxtail; conditions: visual injury, 0 to 100 scale (0 no effect, 100 complete control), approximately 10 days
How it was run: as §1

kochia (Kochia scoparia) [8] = experiment: Test A preemergence, kochia; conditions: 0 to 100 scale (0 no effect, 100 complete control)
How it was run: as §1

[9] = test system: ryegrass, Italian (Lolium multiflorum); experiment: Test A preemergence, Italian ryegrass; conditions: 0 to 100 scale (0 no effect, 100 complete control)
How it was run: as §1

[10] = test system: ryegrass, Italian (Lolium multiflorum); experiment: Test A postemergence, Italian ryegrass; conditions: visual injury, 0 to 100 scale (0 no effect, 100 complete control), approximately 10 days
How it was run: as §1

[11] = test system: sedge, umbrella (small-flower umbrella sedge, Cyperus difformis); experiment: Test B flooded paddy test, umbrella sedge; conditions: applied to paddy water, visual rating after 13 to 15 days, scale 0 (no effect) to 100 (complete control)
How it was run: as §2

kochia (Kochia scoparia) [12] = experiment: Test A postemergence, kochia; conditions: visual injury, 0 to 100 scale (0 no effect, 100 complete control), approximately 10 days
How it was run: as §1

rice (Oryza sativa) = experiment: Test B flooded paddy test, rice; conditions: applied to paddy water, visual rating after 13 to 15 days, scale 0 (no effect) to 100 (complete control)
How it was run: as §2

corn (Zea mays) = experiment: Test A postemergence, corn; conditions: visual injury, 0 to 100 scale (0 no effect, 100 complete control), approximately 10 days
How it was run: as §1

[13] = test system: barnyardgrass (Echinochloa crus-galli); experiment: Test B flooded paddy test, barnyardgrass; conditions: applied to paddy water, visual rating after 13 to 15 days, scale 0 (no effect) to 100 (complete control)
How it was run: as §2

[14] = test system: galium (catchweed bedstraw, Galium aparine); experiment: Test A postemergence, galium; conditions: visual injury, 0 to 100 scale (0 no effect, 100 complete control), approximately 10 days
How it was run: as §1

[15] = test system: blackgrass (Alopecurus myosuroides); experiment: Test A postemergence, blackgrass; conditions: visual injury, 0 to 100 scale (0 no effect, 100 complete control), approximately 10 days
How it was run: as §1

[16] = test system: barnyardgrass (Echinochloa crus-galli); experiment: Test A preemergence, barnyardgrass; conditions: 0 to 100 scale (0 no effect, 100 complete control)
How it was run: as §1

[17] = test system: ragweed (common ragweed, Ambrosia elatior); experiment: Test A preemergence, ragweed; conditions: 0 to 100 scale (0 no effect, 100 complete control)
How it was run: as §1

[18] = test system: foxtail, giant (Setaria faberii); experiment: Test A preemergence, giant foxtail; conditions: 0 to 100 scale (0 no effect, 100 complete control)
How it was run: as §1

SMILES | Plant response rating, Ragweed ([1]; 125 g ai/ha) | Plant response rating, Ragweed ([1]; 500 g ai/ha) | Plant response rating, Pigweed ([3]; 125 g ai/ha) | Plant response rating, Pigweed ([3]; 500 g ai/ha) | Plant response rating, Wheat ([4]; 125 g ai/ha) | Plant response rating, Wheat ([4]; 500 g ai/ha) | Plant response rating, Barnyardgrass ([5]; 125 g ai/ha) | Plant response rating, Barnyardgrass ([5]; 500 g ai/ha) | Plant response rating, Pigweed ([6]; 125 g ai/ha) | Plant response rating, Pigweed ([6]; 500 g ai/ha) | Plant response rating, Foxtail, Giant ([7]; 125 g ai/ha) | Plant response rating, Foxtail, Giant ([7]; 500 g ai/ha) | Plant response rating, Kochia (kochia (Kochia scoparia) [8]; 125 g ai/ha) | Plant response rating, Kochia (kochia (Kochia scoparia) [8]; 500 g ai/ha) | Plant response rating, Ryegrass, Italian ([9]; 125 g ai/ha) | Plant response rating, Ryegrass, Italian ([9]; 500 g ai/ha) | Plant response rating, Ryegrass, Italian ([10]; 125 g ai/ha) | Plant response rating, Ryegrass, Italian ([10]; 500 g ai/ha) | Plant response rating, Kochia (kochia (Kochia scoparia) [12]; 125 g ai/ha) | Plant response rating, Kochia (kochia (Kochia scoparia) [12]; 500 g ai/ha) | other results
C[Si](C)(C)C#Cc1cccc(C2CNC(=O)C2C(=O)Nc2cccc(F)c2F)c1 (stereo not drawn) [Compound 33] | 0 | 0 | 0 | 0 | 0 | 0 | 0 | 50 | 0 | 0 | 0 | 50 | 0 | 0 | 0 | 0 | 0 | 0 | 0 | 40 | Plant response rating, Ducksalad (Flood) ([2]; 250 g ai/ha): 50; Plant response rating, Sedge, Umbrella (Flood) ([11]; 250 g ai/ha): 0; Plant response rating, Rice (Flood) (rice (Oryza sativa); 250 g ai/ha): 0; Plant response rating, Corn (corn (Zea mays); 125 g ai/ha): 0; Plant response rating, Corn (corn (Zea mays); 500 g ai/ha): 0; Plant response rating, Barnyardgrass (Flood) ([13]; 250 g ai/ha): 0; Plant response rating, Galium ([14]; 125 g ai/ha): 0; Plant response rating, Galium ([14]; 500 g ai/ha): 20; Plant response rating, Blackgrass ([15]; 125 g ai/ha): 0; Plant response rating, Blackgrass ([15]; 500 g ai/ha): 0; Plant response rating, Barnyardgrass ([16]; 125 g ai/ha): 60; Plant response rating, Barnyardgrass ([16]; 500 g ai/ha): 80; Plant response rating, Ragweed ([17]; 125 g ai/ha): 0; Plant response rating, Ragweed ([17]; 500 g ai/ha): 0; Plant response rating, Foxtail, Giant ([18]; 125 g ai/ha): 60; Plant response rating, Foxtail, Giant ([18]; 500 g ai/ha): 80
O=C1NCC(c2cccc(Cn3ccc(C(F)(F)F)n3)c2)C1C(=O)Nc1ccc(F)cc1F (stereo not drawn) [Compound 24] | 0 | 0 | 0 | 0 | 0 | 0 | 0 | 0 | 0 | 0 | 0 | 0 | 0 | 0 | 0 | 0 | 0 | 0 | 0 | 0 | Plant response rating, Ducksalad (Flood) ([2]; 500 g ai/ha): 0; Plant response rating, Sedge, Umbrella (Flood) ([11]; 500 g ai/ha): 0; Plant response rating, Rice (Flood) (rice (Oryza sativa); 500 g ai/ha): 0; Plant response rating, Corn (corn (Zea mays); 125 g ai/ha): 0; Plant response rating, Corn (corn (Zea mays); 500 g ai/ha): 0; Plant response rating, Barnyardgrass (Flood) ([13]; 500 g ai/ha): 0; Plant response rating, Galium ([14]; 125 g ai/ha): 0; Plant response rating, Galium ([14]; 500 g ai/ha): 0; Plant response rating, Blackgrass ([15]; 125 g ai/ha): 0; Plant response rating, Blackgrass ([15]; 500 g ai/ha): 0; Plant response rating, Barnyardgrass ([16]; 125 g ai/ha): 0; Plant response rating, Barnyardgrass ([16]; 500 g ai/ha): 0; Plant response rating, Ragweed ([17]; 125 g ai/ha): 0; Plant response rating, Ragweed ([17]; 500 g ai/ha): 0; Plant response rating, Foxtail, Giant ([18]; 125 g ai/ha): 0; Plant response rating, Foxtail, Giant ([18]; 500 g ai/ha): 0
O=C1NCC(c2cccc(Cn3ccc(C(F)(F)F)n3)c2)C1C(=O)Nc1cccc(F)c1F (stereo not drawn) [Compound 25, N-(2,3-difluorophenyl)-2-oxo-4-[3-[[3-(trifluoromethyl)-1H-pyrazol-1-yl]methyl]phenyl]-3-pyrrolidinecarboxamide] | 0 | 0 | 0 | 0 | 0 | 0 | 20 | 60 | 0 | 0 | 20 | 60 | 0 | 20 | 0 | 0 | 0 | 0 | 0 | 0 | Plant response rating, Ducksalad (Flood) ([2]; 500 g ai/ha): 60; Plant response rating, Sedge, Umbrella (Flood) ([11]; 500 g ai/ha): 0; Plant response rating, Rice (Flood) (rice (Oryza sativa); 500 g ai/ha): 15; Plant response rating, Corn (corn (Zea mays); 125 g ai/ha): 0; Plant response rating, Corn (corn (Zea mays); 500 g ai/ha): 0; Plant response rating, Barnyardgrass (Flood) ([13]; 500 g ai/ha): 0; Plant response rating, Galium ([14]; 125 g ai/ha): 0; Plant response rating, Galium ([14]; 500 g ai/ha): 0; Plant response rating, Blackgrass ([15]; 125 g ai/ha): 0; Plant response rating, Blackgrass ([15]; 500 g ai/ha): 0; Plant response rating, Barnyardgrass ([16]; 125 g ai/ha): 20; Plant response rating, Barnyardgrass ([16]; 500 g ai/ha): 40; Plant response rating, Ragweed ([17]; 125 g ai/ha): 0; Plant response rating, Ragweed ([17]; 500 g ai/ha): 0; Plant response rating, Foxtail, Giant ([18]; 125 g ai/ha): 50; Plant response rating, Foxtail, Giant ([18]; 500 g ai/ha): 80
CN(C)N=Cc1cccc(C2CN(C)C(=O)C2C(=O)Nc2ccccc2F)c1 (stereo not drawn) [Compound 54] | 0 | 0 | 0 | 0 | 0 | 0 | 0 | 30 | 0 | 0 | 0 | 20 | 0 | 0 | 0 | 0 | 0 | 0 | 0 | 0 | Plant response rating, Ducksalad (Flood) ([2]; 250 g ai/ha): 0; Plant response rating, Sedge, Umbrella (Flood) ([11]; 250 g ai/ha): 0; Plant response rating, Rice (Flood) (rice (Oryza sativa); 250 g ai/ha): 0; Plant response rating, Corn (corn (Zea mays); 125 g ai/ha): 0; Plant response rating, Corn (corn (Zea mays); 500 g ai/ha): 0; Plant response rating, Barnyardgrass (Flood) ([13]; 250 g ai/ha): 0; Plant response rating, Galium ([14]; 125 g ai/ha): 0; Plant response rating, Galium ([14]; 500 g ai/ha): 0; Plant response rating, Blackgrass ([15]; 125 g ai/ha): 0; Plant response rating, Blackgrass ([15]; 500 g ai/ha): 0; Plant response rating, Barnyardgrass ([16]; 125 g ai/ha): 0; Plant response rating, Barnyardgrass ([16]; 500 g ai/ha): 20; Plant response rating, Ragweed ([17]; 125 g ai/ha): 0; Plant response rating, Ragweed ([17]; 500 g ai/ha): 0; Plant response rating, Foxtail, Giant ([18]; 125 g ai/ha): 0; Plant response rating, Foxtail, Giant ([18]; 500 g ai/ha): 70
